“Also recorded” adds a separate entry of the source.

For the experiment, the system named is PV immunoreactive interneurons (PVI) in the PFC of NVHL rats. Nature of the experiment: PV interneuron counts (stereology) in PFC of NVHL rats. The class given is in vivo, Sprague-Dawley rats. To be noted: adult (P61) NVHL rats; drinking water 900 mg/l, P5 to P50. The method, then: This example describes reversal of prepulse inhibition through treatment of ebselen. One of the most replicated findings in schizophrenia research is a reduction of markers associated with cortical inhibitory interneurons (Lewis et al., 2012). […] Whether parvalbumin (PV) positive interneurons in the PFC, including the dorsal prelimbic and anterior cingulate cortex (ACC), are altered in NVHL rats using unbiased stereological counting techniques was assessed. Between postnatal day (P) 21 and P61, the number of PV immunoreactive interneurons (PVI) increased in sham-operated rats, but not in NVHL rats as illustrated in FIGS. 7A and 1B.
Animals: Timed-pregnant Sprague-Dawley rats were obtained at gestational days 13-15 from Charles River (Wilmington, MA) and were individually housed with free access to food and water in a temperature- and humidity-controlled environment with a 12:12h light/dark cycle (lights on at 7:00 AM). When pups reached P5, half of the dams received NAC in their drinking water. Pups were left undisturbed until P7-9 when healthy offspring were randomly separated and received either NVHL or sham surgery. At P21, male and female pups were either transcardially perfused with 4% paraformaldehyde for immunocytochemistry or weaned and housed in groups of two to three, counterbalanced across lesion status. NAC treatment lasted throughout adolescence until P50. […]

With `CC(=O)N[C@@H](CS)C(=O)O` [NAC, N-acetyl cysteine], the “effect on PVI count reduction in PFC” value was “prevented; also recorded: rescued”.

The record behind these values is US20240050409A1, “Methods and Compositions for Treating Psychotic Disorders” (SOUND PHARMACEUTICALS INCORPORATED, priority 2014, published 2024).
